Results on 31 compounds are retold here after patent US20230220010A1, “BROAD-SPECTRUM ANTIVIRAL PEPTIDES” (priority 2020, published 2023).

In series [1] the test system is Lassa pseudovirus (LASVpv). Particulars: for EC50: 72 h.
The nature of series [2]: Cytotoxicity assay, ALAMARBLUE, HEK cells.
For the next series, the system named is H3N2 influenza virus. Particulars: for EC50: influenza virus.
In series [3] the test system is HEK cells. The series can be described thus: Cytotoxicity assay, ALAMARBLUE, HEK cells. Particulars: HEK cells with or without LASVpv, ALAMARBLUE
A general note: Alamar Blue is a resazurin reagent that responds to reducing activity.

A further series deals with HEK 293T/17 cells. The experiment in a line: Cytotoxicity assay, CELLTITER-GLO, HEK cells. The conditions noted are these: for cytotoxicity against HEK cells: CELLTITER-GLO, 3 days; for cell viability, HEK 293T/17 cells: peptide concentrations approximately below 4 μM, about 72 hours. (In general: ATP-based viability assays read luminescence as a measure of living cells.)

Series [4] has as its system HEK cells. The series can be described thus: Cytotoxicity with varying serum (FBS) concentrations, HEK cells.
For series [5], the system named is HEK cells. The experiment in a line: Cytotoxicity with varying cell densities, HEK cells. Particulars: 5×10^3 to 1×10^5 cells/well.
In a further series the test system is dengue virus type 2. Particulars: read-out: EC50 against dengue virus (DENV); plaque assay.
For a further series, the system named is Vero E6 cells. The experiment in a line: Cytotoxicity assay, CELLTITER-GLO, Vero E6 cells. The conditions noted are these: peptide concentrations at or below 2 μM, about 72 hours.

By EC50 is commonly meant the midpoint of the concentration-response curve.

Square brackets hold non-standard residues; d marks the D form. Ends that are not written are not given here. Peptide text beside a SMILES is read from it.

As for “RRRRRRRRRWC-NH2 [Arg9, RRRRRRRRRWC, reference compound]”, the figures for the EC50 (in series [1]; in series [2]; in the series on H3N2 influenza virus) were more than 100 µM, more than 75 µM and 6.7 µM, respectively.
As for “RRGWALRLNLYYGRR-NH2 [*ARNY*, RRGWALRLNLYYGRR]”, the EC50 in series [1] is 2.2 µM; in series [2], more than 100 µM; in the series with H3N2 influenza virus it was 4.5 µM. For the same compound, the “cell viability in the presence and absence of virus” value (shortened to “cell viability … of virus”) with HEK cells [3] is given as “no difference”.
As for “GIGAVLKGLATGLPAGISWIKQQAQL-NH2 [MelN4, reference compound]”, the 50% effective concentration (EC50) in [1] and in series [2] was more than 100 µM throughout.
“RRWLLLLRLLLLWRR-NH2 [TL4dG, RRWLLLLRLLLLWRR]”: the “cytotoxicity against HEK cells” value in the series with HEK 293T/17 cells is given as “less cytotoxic than TL3”.
With “RRGWTLNLTLNYGRR-NH2 [*TNTN*, RRGWTLNLTLNYGRR]”, the concentration giving a half-maximal response (EC50) was 1.1 µM in series [1], 22 µM in [2] and 6.1 µM in the series with H3N2 influenza virus.
Turning to `CC(C)C[C@@H](NC(=O)[C@@H](Cc1c[nH]c2ccccc12)NC(=O)[C@@H](CCCNC(=N)N)NC(=O)[C@H](N)CCCNC(=N)N)C(=O)N[C@H](CC(C)C)C(=O)N[C@H](CC(C)C)C(=O)N[C@H](CC(C)C)C(=O)N[C@H](CC(N)=O)C(=O)N[C@H](CC(C)C)C(=O)N[C@H](CC(C)C)C(=O)N[C@H](CC(C)C)C(=O)N[C@H](CC(C)C)C(=O)N[C@H](Cc1c[nH]c2ccccc12)C(=O)N[C@H](CCCNC(=N)N)C(=O)N[C@H](CCCNC(=N)N)C(N)=O` [D-TL4NdG, rrwllllnllllwrr] (H-[dR][dR][dW][dL][dL][dL][dL][dN][dL][dL][dL][dL][dW][dR][dR]-NH2), in the series on HEK 293T/17 cells, the “cell viability, HEK 293T/17 cells” value is reported as “high cell viability”.
Regarding RRGFSLKLALLKDGWLLLRLGYGRR-NH2 [IT1-b], the “effect of serum concentration on cytotoxicity” value in the series with HEK cells [4] (0-50% FBS) is “far less cytotoxic as serum concentration increases”. Moreover, the “effect of cell density on cytotoxicity” value with HEK cells [5] is “remained consistent as cell density increases”. The EC50 is 0.225 µM in the series with dengue virus type 2, 1.4 µM in series [1], more than 75 µM in [2] and 2.3 µM with H3N2 influenza virus. Moreover, in the series with HEK cells [3], the “cell viability … of virus” value was “varies in the presence and absence of virus”. The “cell viability, Vero E6 cells” value in the series on Vero E6 cells is recorded as “High cell viability”.
In the case of RRGFSLKLALLYRGWLLLLRLGYGRR-NH2 [IT1-c], the EC50 in the series with H3N2 influenza virus is 1.2 µM.
“RRGWNLALTLTYGRR-NH2 [*NATT*, RRGWNLALTLTYGRR]”: the 50% effective concentration (EC50) was determined as 1.2 µM in series [1], 43 µM in series [2] and 0.7 µM in the series with H3N2 influenza virus. For the same compound, the “cell viability … of virus” value in the series with HEK cells [3] is recorded as “no difference”.
In the case of WALRLYLGVY-NH2 [ARYV, WALRLYLGVY], the EC50 was found to be 7.9 µM in [1] and 3.7 µM in the series with H3N2 influenza virus.
For RRGFSLKLRLLYRGWGLALRLGYGRR-NH2 [IT1-d], the EC50 in series [1] was 1.3 µM; in series [2] it was more than 100 µM; with H3N2 influenza virus, 0.4 µM.
Consider `CC(C)C[C@@H](NC(=O)[C@@H](Cc1c[nH]c2ccccc12)NC(=O)CNC(=O)[C@@H](CCCNC(=N)N)NC(=O)[C@H](N)CCCNC(=N)N)C(=O)N[C@H](CC(C)C)C(=O)N[C@H](CC(C)C)C(=O)N[C@H](CCCNC(=N)N)C(=O)N[C@H](CC(C)C)C(=O)N[C@H](CC(C)C)C(=O)N[C@H](CCCNC(=N)N)C(=O)N[C@H](CC(C)C)C(=O)N[C@H](CC(C)C)C(=O)N[C@H](CC(C)C)C(=O)N[C@H](CCCNC(=N)N)C(=O)N[C@H](CC(C)C)C(=O)N[C@H](CC(C)C)C(=O)N[C@H](Cc1c[nH]c2ccccc12)C(=O)NCC(=O)N[C@H](CCCNC(=N)N)C(=O)N[C@H](CCCNC(=N)N)C(N)=O` [D-AHR, rrgwlllrllrlllrllwgrr] (H-[dR][dR]G[dW][dL][dL][dL][dR][dL][dL][dR][dL][dL][dL][dR][dL][dL][dW]G[dR][dR]-NH2), for which the “cell viability, HEK 293T/17 cells” value with HEK 293T/17 cells is recorded as “high cell viability”.
Consider “RRGWNLRLRLVYGRR-NH2 [*NRRV*, RRGWNLRLRLVYGRR]”, for which the EC50 in series [2] came to 15 µM; in the series on H3N2 influenza virus, 8 µM.
For the compound “RRGWLLLRLLLWGRR-NH2 [TL3, RRGWLLLRLLLWGRR]”, in the series with HEK cells [4], the “cytotoxicity in 0% FBS” value was “does display cytotoxicity”; the “cytotoxicity in 10%, 25%, and 50% FBS” value is “completely noncytotoxic”. Besides, the “effect of cell density on cytotoxicity” value with HEK cells [5] was “increases as cell density increases”. In the series on Vero E6 cells, the “cell viability, Vero E6 cells” value is reported as “High cell viability”.
With LALLKDGWLLL [Mid], the “antiviral activity against LASVpv” value in [1] is listed as “no antiviral activity”.
Regarding “RRGWRLNLNLYYGRR-NH2 [*RNNY*, RRGWRLNLNLYYGRR]”, the values for the EC50 (in series [1]; in [2]; with H3N2 influenza virus) were 2.1 µM, 19 µM and 2.3 µM, respectively.
For RRGWALRLVLAY-NH2 [*ARVA, RRGWALRLVLAY], the EC50 in series [1] was 6.2 µM; in series [2], more than 75 µM; in the series with H3N2 influenza virus, 0.9 µM.
Consider “RRGWLLLLNLLLLWGRR-NH2 [TL4N, RRGWLLLLNLLLLWGRR]”, for which the “CC50 compared to IT1b” value in the series on HEK 293T/17 cells (% greater than that of IT1b, HEK cells) is reported as “over 500%”. In the series on HEK 293T/17 cells, the “cytotoxicity against HEK cells” value was “much less cytotoxic than TL3”.
KDGWLLLRLGYGRR [Cterm-Cat]: the “antiviral activity against LASVpv” value in [1] is given as “next most active peptide”.
In the case of RRGFSLKLALLKDGWLLLLRLGYGRR-NH2 [IT1-f], the concentration giving a half-maximal response (EC50) in [1] is 1.1 µM; in series [2], 20 µM; in the series on H3N2 influenza virus, 1.5 µM.
For the compound KLALLKDGWLLLR [Mid-Cat], the “antiviral activity against LASVpv” value in [1] is given as “moderate potency”.
With “RRGWVLDLVLYYGRR-NH2 [*VDVY*, RRGWVLDLVLYYGRR]”, the figures for the half-maximal effective concentration (EC50) (in [1]; in series [2]; in the series on H3N2 influenza virus) were 5 µM, more than 100 µM and 12 µM, respectively.
For the compound “RRGWGLRLVLYYGRR-NH2 [*GRVY*, RRGWGLRLVLYYGRR]”, the EC50 is 2.1 µM in series [1] and 9.1 µM with H3N2 influenza virus.
Take `CC[C@H](C)[C@H](NC(=O)CN)C(=O)NCC(=O)N[C@@H](C)C(=O)N[C@H](C(=O)N[C@@H](CC(C)C)C(=O)N[C@@H](CCCCN)C(=O)N[C@H](C(=O)N[C@@H](CC(C)C)C(=O)N[C@H](C(=O)N[C@H](C(=O)NCC(=O)N[C@@H](CC(C)C)C(=O)N1CCC[C@H]1C(=O)N[C@@H](C)C(=O)NCC(=O)N[C@H](C(=O)N[C@@H](CO)C(=O)N[C@@H](Cc1c[nH]c2ccccc12)C(=O)N[C@H](C(=O)N[C@@H](CCCCN)C(=O)N[C@@H](CCCNC(=N)N)C(=O)N[C@@H](CCCCN)C(=O)N[C@@H](CCCNC(=N)N)C(=O)N[C@@H](CCC(N)=O)C(=O)N[C@@H](CCC(N)=O)C(N)=O)[C@@H](C)CC)[C@@H](C)CC)[C@@H](C)O)[C@@H](C)O)C(C)C)C(C)C` [Mel-L16G, reference compound]: the half-maximal effective concentration (EC50) in [1] was 28 µM; in series [2] it was 21 µM.
As to `CC(C)C[C@@H](NC(=O)[C@@H](C)NC(=O)[C@@H](Cc1c[nH]c2ccccc12)NC(=O)CNC(=O)[C@@H](CCCNC(=N)N)NC(=O)[C@H](N)CCCNC(=N)N)C(=O)N[C@H](CCCNC(=N)N)C(=O)N[C@H](CC(C)C)C(=O)N[C@@H](C(=O)N[C@H](CC(C)C)C(=O)N[C@H](C)C(=O)N[C@H](Cc1ccc(O)cc1)C(N)=O)C(C)C` [*arva] (H-[dR][dR]G[dW][dA][dL][dR][dL][dV][dL][dA][dY]-NH2), the half-maximal effective concentration (EC50) with H3N2 influenza virus came out at 0.4 µM.
Regarding PLZYLRLLRGQF [TP2, reference compound], in the series with H3N2 influenza virus, the “activity against H3N2” value is given as “some antiviral activity”.
Turning to RRGFSLKLLLSYRGWALLRLGYGRR-NH2 [IT1-a], the EC50 in series [1] amounted to 1.6 µM; in series [2] it was 19 µM; in the series on H3N2 influenza virus it was 1.6 µM. Besides, the “cell viability … of virus” value with HEK cells [3] is “varies in the presence and absence of virus”.
As to RRGFSLKLKLLYRGWALALRLGYGRR-NH2 [IT1-e], the EC50 in series [1] was 1.2 µM; in series [2], more than 50 µM; in the series on H3N2 influenza virus, 0.6 µM.
As to `CC(C)C[C@@H](NC(=O)[C@@H](C)NC(=O)[C@@H](CC(C)C)NC(=O)[C@@H](CCCCN)NC(=O)[C@@H](CC(C)C)NC(=O)[C@@H](CO)NC(=O)[C@@H](Cc1ccccc1)NC(=O)CNC(=O)[C@@H](CCCNC(=N)N)NC(=O)[C@H](N)CCCNC(=N)N)C(=O)N[C@H](CC(C)C)C(=O)N[C@H](CCCCN)C(=O)N[C@H](CC(=O)O)C(=O)NCC(=O)N[C@H](Cc1c[nH]c2ccccc12)C(=O)N[C@H](CC(C)C)C(=O)N[C@H](CC(C)C)C(=O)N[C@H](CC(C)C)C(=O)N[C@H](CCCNC(=N)N)C(=O)N[C@H](CC(C)C)C(=O)NCC(=O)N[C@H](Cc1ccc(O)cc1)C(=O)NCC(=O)N[C@H](CCCNC(=N)N)C(=O)N[C@H](CCCNC(=N)N)C(N)=O` [D-IT1b, rrgfslklallkdgwlllrlgygrr] (H-[dR][dR]G[dF][dS][dL][dK][dL][dA][dL][dL][dK][dD]G[dW][dL][dL][dL][dR][dL]G[dY]G[dR][dR]-NH2), the “cell viability, HEK 293T/17 cells” value in the series with HEK 293T/17 cells is recorded as “high cell viability”.
The same measure, in the same setting: the same measure for `CC(C)C[C@@H](NC(=O)[C@@H](Cc1c[nH]c2ccccc12)NC(=O)CNC(=O)[C@@H](CCCNC(=N)N)NC(=O)[C@H](N)CCCNC(=N)N)C(=O)N[C@H](CC(C)C)C(=O)N[C@H](CC(C)C)C(=O)N[C@H](CCCNC(=N)N)C(=O)N[C@H](CC(C)C)C(=O)N[C@H](CC(C)C)C(=O)N[C@H](CC(C)C)C(=O)N[C@H](Cc1c[nH]c2ccccc12)C(=O)NCC(=O)N[C@H](CCCNC(=N)N)C(=O)N[C@H](CCCNC(=N)N)C(N)=O` [D-TL3, rrgwlllrlllwgrr] (H-[dR][dR]G[dW][dL][dL][dL][dR][dL][dL][dL][dW]G[dR][dR]-NH2): “high cell viability”.
For the compound WVLVLRLGY-NH2 [VVRG, WVLVLRLGY], the EC50 in the series on H3N2 influenza virus was determined as 6.1 µM.
